# Test results: patent US20260209152A1, “Substituted Hydroxystilbene Compounds and Derivatives, Synthesis and Uses Thereof” (Kynan Duke IP, LLC, priority 2019, published 2026)
# Where “and” joins values, the source holds several entries; their conditions need not be identical. Equal entries are not always repeated. Where two headings read alike, the source gives them in different places.
# Assays:
# [1] = system: CCL2 release from IL-4, IL-13, IL-22 and IFN-γ-stimulated primary human keratinocytes; experiment: Keratinocyte CCL2 release (LEO Pharma Open Innovation assay number 1280); type: cell-based; conditions: for EC50 / Emax: Homo sapiens, Keratinocyte; for Max Eff.: CCL2 (1280): highest effect as percentage of control maximum effect; for Emax: read-out: maximum efficacy, CCL2 secretion
# Procedure: Inhibition of CCL2 release from IL-4, IL-13, IL-22 and IFN-γ-stimulated primary human keratinocytes LEO Pharma Open Innovation assay number 1280
# The inflammatory skin disease atopic dermatitis (AD) is characterized by the T-cell cytokines including IL-4, IL-13, IL-22 and IFN-γ. In the present assay, keratinocytes are stimulated with a mixture of these cytokines, and the release of CCL2 (also called monocyte chemoattractant protein 1 (MCP-1)) is measured in the culture supernatant by proximity homogenous time-resolved fluorescence (HTRF). […] Compound which inhibit keratinocyte CCL2 secretion may be expected to have efficacy in atopic dermatitis.
# HEKa are human epidermal keratinocytes isolated from adult skin. The cells have been cryopreserved at the end of the primary culture stage in a medium containing 10% DMSO. Sterile cell culture work applies.
# • Trypsinize the cells as described above. • Resuspend pellet in 10 ml assay medium (EpiLife Medium with HKGS Kit but without hydrocortisone) • Filter the cells though a 37 µm strainer. • Count cells using a cell counter. • Seed HEKa cells in 384-well view plates 3500 c/w/40 μL. • Place the plates with lids on in a humidity chamber with lid (24.5×24.5 cm box added H2O in the bottom). • Incubate plates over night at 37° C., 5% CO2/95% air
# • Prepare compound-containing source plate, i.e. titrations in DMSO to be transferred to the assay plate. • Add 80 nL compounds and controls from the source plate to the assay plate (with cells). • Add 40 μL stimulation (recombinant human interleukin (IL) 4, 13, 22 at 10 ng/mL and Interferon-gamma at 1 ng/mL) in medium with supplement, but without hydrocortisone. • Incubate plates at 37° C., 5% CO2/95% air for 2 days.
# • Remove plates from incubation and equilibrate to room temperature for 30 minutes. • Transfer […] supernatant to white proxi 384-well plates for CCL2 detection. • Add […] media to the detection plate. • Add […] CCL2 HTRF detection reagent (to the white proxi 384w). • Seal and incubate for 4 hours and read in a plate reader.
# CCL2 concentration in the supernatants is measured using homogeneous time-resolved fluorescence resonance (TR-FRET). The assay is quantified by measuring fluorescence at 665 nm (proportional to CCL2 concentration) and 620 nm (control). A ratio 665/620*1000 is calculated.
# Pancreatic MIA PaCa-2 = experiment: CellTiter Glo cell viability assay; type: cell-based, human
# How it was run: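 MIA PaCa-2 human pancreatic cancer cells were plated in 96-well plates, 1.7*10^3 cells/well in quadruplicate, and compounds were added as serial dilutions to build dose-response curves. Viability was read by CellTiter Glo Luminescence (Promega) on a Varioskan LUX reader. Relative luminescence was plotted against log dose, and IC50 was obtained by nonlinear regression in GraphPad Prism 7.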
# [2] = system: primary human keratinocytes; experiment: Cell viability in keratinocyte IL-8 assay (assay number 1244); type: cell-based; conditions: Homo sapiens
# From the text: (§1) • 1. Determination of inhibition of CCL2 release from IL-4, IL-13, IL-22 and IFN-γ-stimulated primary human keratinocytes [assay number 1280] and determination of the effect on cell viability [assay number 1243]. • 2. Determination of inhibition of IL-8 release from IL-17A and TNFα-induced primary human keratinocytes [assay number 1250] and determination of the effect on cell viability [assay number 1244]. • 3. Determination of inhibition of IL-17A secretion from human PBMC stimulated with antiCD3/antiCD28-coated beads [assay number 1321] and determination of the effect on cell viability [assay number 1322]. • 4. Determination of inhibition of IL-4 and IL-2 secretion from human CD4-positive T-cells stimulated with antiCD2/antiCD3/antiCD28-coated beads [assay number 1297, 1298] and determination of the effect on cell viability [assay number 1299].
# [3] = as above; type: cell-based, human; conditions: human, primary human keratinocytes induced with IL-17A and TNFα
# From the text: as §1
# [4] = half maximal effective concentration relative to control, inhibition of CCL2 release, keratinocytes, read-out: Abs EC50: CCL2 (1280)
# [5] = Homo sapiens, MIA PaCa-2, 72 h, 3 Days of treatment, 18 2-fold dilutions 5-0.00003 μM, read-out: Average IC50
# [6] = Homo sapiens, MIA PaCa-2, 72 h, Table 4: 3 Days of treatment, 18 2-fold dilutions 5-0.00003 μM, Average (1, 8) or single Exp A-D, read-out: IC50
# [7] = Homo sapiens, MIA PaCa-2, 120 h, Day 5 upon drug treatment, 10 dosages 0.0001-20 μM (Compound 8: 18 dosages 0.000038146 to 5 μM), read-out: IC50
# [8] = Homo sapiens, MIA PaCa-2, MIA PaCa-2/CRL-1420, 11 dilutions 3-0.00001 μM, Table 6, read-out: IC50
# [9] = Homo sapiens, MIA PaCa-2, Table 5A: 11 dilutions 3-0.00001 μM, average of experiments, read-out: IC50 average
# [10] = Keratinocyte, cell viability in IL-8 assay, read-out: Abs EC50: Viab (1244)
# [11] = maximum reduction of cell viability in IL-8 assay, read-out: Max Eff.: Viab (1244)
# [12] = read-out: EC50, inhibition of keratinocyte CCL2 secretion
# [13] = Homo sapiens, MIA PaCa-2, Table 5A: 11 dilutions 3-0.00001 μM, single experiments Exp E-K, read-out: IC50
# [14] = Table 5A: 11 dilutions 3-0.00001 μM, single experiments Exp E-K, read-out: IC50
# [15] = keratinocyte IL-8 assay, read-out: EC50, cell viability
# [16] = keratinocyte IL-8 assay, read-out: maximum reduction of cell viability
Structure (SMILES),"EC50 [1, 4]",IC50 (Pancreatic MIA PaCa-2; [5]),"IC50 (Pancreatic MIA PaCa-2; Homo sapiens, MIA PaCa-2, 72 h, Day 3 upon drug treatment, 10 dosages 0.0001-20 μM, read-out: IC50)",IC50 (Pancreatic MIA PaCa-2; [6]),IC50 (Pancreatic MIA PaCa-2; [7]),IC50 (Pancreatic MIA PaCa-2; [8]),IC50 (Pancreatic MIA PaCa-2; [9]),"Fold IC50 (Pancreatic MIA PaCa-2; IC50 of 1 [KYN-001] vs 8 [KYN-119], 3 Days)","IC50 (Pancreatic MIA PaCa-2; Table 5A: 11 dilutions 3-0.00001 μM, average of experiments, read-out: IC50 average)",IC50 (Pancreatic MIA PaCa-2; [13]),Max Eff.: CCL2 (1280) [1],"EC50 [2, 10]","cytotoxicity [3, 11]","EC50 [1, 12]",Emax [1],Fold more potent than 1 [KYN-001] (Pancreatic MIA PaCa-2; MIA PaCa-2 cells),IC50 (Pancreatic MIA PaCa-2; [14]),"EC50 [2, 15]","cytotoxicity [3, 16]","reduction of CCL2 release, in words [1]"
"COc1cc(/C=C/c2cc(O)cc(OC)c2CC=C(C)C)ccc1O [Compound 1, (E)-3-(4-hydroxy-3-methoxystyryl)-5-methoxy-4-(3-methylbut-2-en-1-yl)phenol]",123 nM,127 nM,204 nM,888 nM,50.7 nM,109 nM,80.6 nM,–,–,–,101%,90 nM,92%,–,–,–,–,–,–,–
"CCOc1cc(O)cc(/C=C/c2ccc(O)c(OC)c2)c1CC=C(C)C [Compound 8, (E)-3-Ethoxy-5-(4-hydroxy-3-methoxystyryl)-4-(3-methylbut-2-en-1-yl)phenol]",50 nM,18.1 nM,–,210 nM,~0.47 nM,23.4 nM,25 nM,7.0,25.5 nM,–,102%,32 nM,101%,–,–,–,–,–,–,–
"CCOc1cc(O)cc(/C=C/c2ccc(O)c(O)c2)c1CC=C(C)C [Compound 20, (E)-4-(3-Ethoxy-5-hydroxy-2-(3-methylbut-2-en-1-yl)styryl)benzene-1,2-diol]",108 nM,–,–,–,–,54.9 nM,–,–,–,–,99%,221 nM,76%,–,–,–,–,–,–,–
"COc1cc(/C=C/c2cc(O)cc(OC)c2CC=C(C)C)ccc1NC=O [Compound 27, (E)-N-(4-(5-hydroxy-3-methoxy-2-(3-methylbut-2-en-1-yl)styryl)-2-methoxyphenyl)formamide]",32 nM,–,–,–,–,21.4 nM,15 nM,–,–,10 to 100 nM,100%,32 nM,–,32 nM,100%,approximately 5,14.7 nM and 13.4 nM and 16.8 nM,32 nM,83%,–

# The next lines start with results.
"EC50 [1, 4]",IC50 (Pancreatic MIA PaCa-2; [5]),"IC50 (Pancreatic MIA PaCa-2; Homo sapiens, MIA PaCa-2, 72 h, Day 3 upon drug treatment, 10 dosages 0.0001-20 μM, read-out: IC50)",IC50 (Pancreatic MIA PaCa-2; [6]),IC50 (Pancreatic MIA PaCa-2; [7]),IC50 (Pancreatic MIA PaCa-2; [8]),IC50 (Pancreatic MIA PaCa-2; [9]),"Fold IC50 (Pancreatic MIA PaCa-2; IC50 of 1 [KYN-001] vs 8 [KYN-119], 3 Days)","IC50 (Pancreatic MIA PaCa-2; Table 5A: 11 dilutions 3-0.00001 μM, average of experiments, read-out: IC50 average)",IC50 (Pancreatic MIA PaCa-2; [13]),Structure (SMILES),Max Eff.: CCL2 (1280) [1],"EC50 [2, 10]","cytotoxicity [3, 11]","EC50 [1, 12]",Emax [1],Fold more potent than 1 [KYN-001] (Pancreatic MIA PaCa-2; MIA PaCa-2 cells),IC50 (Pancreatic MIA PaCa-2; [14]),"EC50 [2, 15]","cytotoxicity [3, 16]","reduction of CCL2 release, in words [1]"
40 nM,–,–,–,–,12.9 nM,–,–,–,< 1 nM,"CCOc1cc(O)cc(/C=C/c2ccc(NC=O)c(OC)c2)c1CC=C(C)C [Compound 28, (E)-N-(4-(3-Ethoxy-5-hydroxy-2-(3-methylbut-2-en-1-yl)styryl)-2-methoxyphenyl)formamide]",100%,35 nM,–,40 nM,100%,–,0.94 nM and 0.936 nM,35 nM,81%,medium potency reduction of CCL2 release
445 nM,–,–,–,–,–,–,–,–,3180 nM,"COc1cc(/C=C/c2cc(O)cc(OC)c2CC=C(C)C)ccc1NC(=O)CN [Compound 31, (E)-2-amino-N-(4-(5-hydroxy-3-methoxy-2-(3-methylbut-2-en-1-yl)styryl)-2-methoxyphenyl)acetamide]",100%,416 nM,100%,–,–,–,–,–,–,–
1130 nM,–,–,–,–,–,–,–,–,–,"CCOc1cc(O)cc(/C=C/c2ccc(NC(=O)C(=O)O)c(OC)c2)c1CC=C(C)C [Compound 35, (E)-2-((4-(3-Ethoxy-5-hydroxy-2-(3-methylbut-2-en-1-yl)styryl)-2-methoxyphenyl)amino)-2-oxoacetic acid]",79%,5000 nM,72%,–,–,–,–,–,–,–
